Experimental data reported in US5935945A, “Methods of treating or preventing cardiac arrhythmia” (Merck & Co., Inc., priority 1997, dated 1999).
Like-named read-outs stand apart in the source and are kept apart here.

Assays:
[1] = molecular target: T1, IKr (rapidly activating delayed rectifier K^+ current) (Cavia porcellus, UniProt O08703); experiment: Voltage-clamp measurement of IKr in guinea pig ventricular myocytes; format: cell-based; conditions: @ 3 μM; read-out: % Block (Guinea Pig Ventricle) IKr
T1 construct: Guinea pig ventricular myocytes were isolated; from tissue; host or cells: isolated guinea pig ventricular myocytes
T1 sequence (O08703 1-1294): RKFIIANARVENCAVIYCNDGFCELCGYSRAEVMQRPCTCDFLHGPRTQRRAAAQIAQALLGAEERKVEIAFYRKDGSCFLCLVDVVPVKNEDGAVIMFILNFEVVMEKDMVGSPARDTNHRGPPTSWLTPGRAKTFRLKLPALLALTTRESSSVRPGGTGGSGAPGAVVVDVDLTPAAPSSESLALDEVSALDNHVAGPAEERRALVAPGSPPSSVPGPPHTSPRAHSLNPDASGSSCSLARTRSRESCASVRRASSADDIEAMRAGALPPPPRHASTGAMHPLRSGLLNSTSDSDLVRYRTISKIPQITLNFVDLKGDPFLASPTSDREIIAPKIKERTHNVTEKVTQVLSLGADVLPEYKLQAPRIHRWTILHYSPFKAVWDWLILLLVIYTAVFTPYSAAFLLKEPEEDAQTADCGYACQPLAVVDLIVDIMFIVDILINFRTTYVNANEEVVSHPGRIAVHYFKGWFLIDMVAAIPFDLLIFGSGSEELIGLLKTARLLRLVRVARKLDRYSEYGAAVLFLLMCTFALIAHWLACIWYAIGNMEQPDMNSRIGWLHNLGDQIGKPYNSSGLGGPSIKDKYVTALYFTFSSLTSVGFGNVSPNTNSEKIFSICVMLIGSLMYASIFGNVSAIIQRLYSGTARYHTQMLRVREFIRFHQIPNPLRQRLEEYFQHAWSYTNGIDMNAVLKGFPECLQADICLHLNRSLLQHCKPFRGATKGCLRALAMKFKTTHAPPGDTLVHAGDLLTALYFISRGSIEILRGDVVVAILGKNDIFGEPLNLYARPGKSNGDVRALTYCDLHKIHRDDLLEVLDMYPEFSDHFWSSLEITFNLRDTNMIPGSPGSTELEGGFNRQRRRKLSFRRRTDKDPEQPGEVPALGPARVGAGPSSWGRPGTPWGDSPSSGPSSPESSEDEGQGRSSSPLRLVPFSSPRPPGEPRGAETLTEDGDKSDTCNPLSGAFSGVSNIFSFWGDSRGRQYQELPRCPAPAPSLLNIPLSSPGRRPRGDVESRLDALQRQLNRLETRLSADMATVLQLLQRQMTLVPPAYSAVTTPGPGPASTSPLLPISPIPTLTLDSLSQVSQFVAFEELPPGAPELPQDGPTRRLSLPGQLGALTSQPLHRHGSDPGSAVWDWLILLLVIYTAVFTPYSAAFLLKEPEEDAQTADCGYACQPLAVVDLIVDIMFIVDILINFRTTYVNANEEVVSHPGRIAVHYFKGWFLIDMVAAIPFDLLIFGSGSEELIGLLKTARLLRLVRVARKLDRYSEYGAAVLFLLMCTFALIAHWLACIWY
Method: (§1) Guinea pig ventricular myocytes were isolated using a modification of the procedure described by Mitra et al., Am. J. Physiol. 249:H1056-60 (1985). Excised hearts were perfused through the aorta (retrograde fashion) at a rate of 10 ml/min with oxygenated, warmed (37° C.) solutions described below. The heart was initially perfused for 7 minutes with a Tyrode's solution containing, (in mM): 132 NaCl, 4 KCl, 1.2 MgCl2, 10 HEPES, 5 glucose, pH=7.2. The heart was then perfused with the same nominally Ca^2+ -free solution containing 150 units/ml Type II collagenase (Worthington) and 0.5 units/ml Type XIV protease (Sigma) for 8 minutes. This perfusate was followed by a Tyrode's solution containing 0.2 mM CaCl2 (without enzymes) for 5 minutes. The digested ventricles were cut into small pieces and gently shaken until cells were visibly dispersed. The cells were stored at room temperature until use, within 8 hours after isolation.
(§2) The suction microelectrode technique described by Giles, W. R. and Shibata, E. F., "Voltage clamp of bull-frog cardiac pacemaker cells: a quantitative analysis of potassium currents", J. Physiol. 368:265-292 (1985) was used to voltage clamp the cells. Microelectrodes were made by using a two stage puller from square bore (1.0 mm o.d.) borosilicate capillary tubing. Pipettes were filled with 0.5 M K gluconate, 25 mM KCl and 5 mM K2 ATP. The electrodes had resistances of 3 to 7 M.OMEGA. when filled with this solution. After establishing whole-cell recording mode, negative pressure was maintained on the pipette using a 1 ml gas-tight syringe attached via air tight tubing to the suction port of the microelectrode holder. This minimized dialysis of the cell with the pipette solution.
(§3) To record K^+ currents, the cells were bathed in a Ca^2+ -free Tyrode's solution containing […]. […] To record Ca^2+ currents, the cells were bathed in Tyrode's solution containing 1.8 mM Ca^2+ without nisoldipine. The cell chamber was superfused with solutions at a rate of 1-2 ml/minute, while maintaining the temperature at 35±1° C. A List EPC-7 clamp amplifier was used to voltage clamp the isolated cells. […] (Sanguinetti M. C. and Jurkiewicz, N. K., "Two components of cardiac delayed rectifier K^+ current: Differential sensitivity to block by Class III antiarrhythmic agents", J. Gen Physiol 1990; 96:194-214.) Data was analyzed as % block from control membrane currents.
(§4) Nisoldipine was prepared as a 4 mM stock solution in polyethylene glycol 200. […] At the final concentrations used neither polyethylene glycol 200 nor dimethyl sulfoxide had any effect on any of the measured membrane currents.
(§5) Selectivity for block of cardiac K^+ channels, IK1, IKr, and IKs was determined as previously described in guinea pig ventricular myocytes (U.S. Pat. No. 5,428,031).

[2] = system: IK1 (inward rectifier K^+ current); experiment: Voltage-clamp measurement of IK1 in guinea pig ventricular myocytes; format: cell-based; conditions: @ 3 μM
Method: as §1, §2, §3, §4, §5

[3] = molecular target: T2, IKs (slowly activating delayed rectifier K^+ current) (Cavia porcellus, UniProt O70344); experiment: Voltage-clamp measurement of IKs in guinea pig ventricular myocytes; format: cell-based; conditions: @ 3 μM; read-out: % Block (Guinea Pig Ventricle) IKs
T2 construct: Guinea pig ventricular myocytes were isolated; from tissue; host or cells: isolated guinea pig ventricular myocytes
T2 sequence (O70344 whole entry): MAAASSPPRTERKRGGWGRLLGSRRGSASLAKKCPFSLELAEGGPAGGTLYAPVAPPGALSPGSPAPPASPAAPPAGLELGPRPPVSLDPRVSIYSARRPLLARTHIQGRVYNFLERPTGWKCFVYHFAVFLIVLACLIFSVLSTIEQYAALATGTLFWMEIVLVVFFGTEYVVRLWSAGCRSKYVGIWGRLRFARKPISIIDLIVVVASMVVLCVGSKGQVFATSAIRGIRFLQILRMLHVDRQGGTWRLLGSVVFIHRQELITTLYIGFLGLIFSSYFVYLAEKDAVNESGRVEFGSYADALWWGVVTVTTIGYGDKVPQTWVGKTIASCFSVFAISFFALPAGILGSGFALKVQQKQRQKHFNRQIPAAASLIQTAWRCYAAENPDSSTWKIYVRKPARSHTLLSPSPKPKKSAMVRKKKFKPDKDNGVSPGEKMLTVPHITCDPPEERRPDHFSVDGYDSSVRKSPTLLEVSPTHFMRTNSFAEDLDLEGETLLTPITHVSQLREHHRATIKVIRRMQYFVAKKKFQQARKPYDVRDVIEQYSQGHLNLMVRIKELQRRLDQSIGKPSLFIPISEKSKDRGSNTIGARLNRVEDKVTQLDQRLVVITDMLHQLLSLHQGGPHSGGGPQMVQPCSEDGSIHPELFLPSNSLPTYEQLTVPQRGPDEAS
T2 sequence (Q60409 whole entry partner): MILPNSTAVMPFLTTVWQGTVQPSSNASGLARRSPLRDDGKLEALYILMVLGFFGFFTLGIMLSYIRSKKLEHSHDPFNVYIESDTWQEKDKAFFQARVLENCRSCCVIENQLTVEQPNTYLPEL
Method: as §1, §2, §3, §4, §5

Method for atrial flutter: In this model, atrial flutter was induced following a Y-shaped surgical lesion comprised of an intercaval incision and a connecting incision across the right atrium. […] Bipolar electrodes also were sutured to the left ventricle for measurement of ventricular excitation threshold (VET) and ventricular relative (VRRP at 2× VET) and effective refractory periods (VERP at 10×VET). The following cardiac electrophysiologic parameters also were measured before test agent administration and at the termination of the study: AH interval, an index of AV nodal conduction; HV interval, an index of His-ventricular conduction time; P-A interval, an index of intra-atrial conduction; and H-EG interval, an index of ventricular conduction; and paced ECG QT interval. AV nodal functional refractory period (AVNFRP) and SA conduction time (SACT) were determined by the introduction of atrial extrastimuli during sinus rhythm, and the monitoring of ventricular response. Electrocardiographic intervals were determined during sinus rhythm; the rate-corrected ECG QTc interval was calculated as: QTc=QT (msec)/√R-R (sec).
Sustained atrial flutter was initiated in three dogs by electrical burst pacing (6-20 Hz) of the atria; atrial rates ranged from 440-530 cycles/min.

CC1CCC(C(C)C)C(P(=O)(c2ccccc2)c2ccccc2)C1 (centres unmarked) [Compound D, (2-Isopropyl-5-methylcyclohexyl)diphenylphosphine oxide]
inhibition at 3 µM [1]: 3%
% Block (Guinea Pig Ventricle) IK1 [2]: 15%
inhibition at 3 µM [3]: 25%
effect on ventricular function (atrial flutter; dog, in vivo): no indication of effect on ventricular function
time to termination of atrial arrhythmia after test agent administration (atrial flutter; i.v. bolus 1 mg/kg (three dogs) or 10 mg/kg (fourth dog)): 10 to 120 s
atrial rate during atrial flutter (atrial flutter; i.v. bolus 1 mg/kg (three dogs) or 10 mg/kg (fourth dog), initial rates 450-560 cycles/min): slowed atrial rate
termination of atrial arrhythmia (atrial flutter; i.v. bolus 1 mg/kg, in three of four dogs): terminated the atrial arrhythmia
termination of atrial arrhythmia (atrial flutter; i.v. bolus 10 mg/kg, in the fourth of four dogs): terminated the atrial arrhythmia
